ChEMBL document CHEMBL5523757, “Discovery, Synthesis, and Activity Evaluation of Novel Five-Membered Sulfur-Containing Heterocyclic Nucleosides as Potential Anticancer Agents In Vitro and In Vivo” (J Med Chem, 2024)

How the values were obtained:
Assay type in all cases: functional, cell-based
[1] = tested on: MCF7; assay: Antiproliferative activity against human MCF7 cells assessed as inhibition of cell growth incubated for 48 hrs by CCK-8 assay
[2] = tested on: HCT-116; assay: Antiproliferative activity against human HCT-116 cells assessed as inhibition of cell growth incubated for 48 hrs by CCK-8 assay
[3] = tested on: HeLa; assay: Antiproliferative activity against human HeLa cells assessed as inhibition of cell growth incubated for 48 hrs by CCK-8 assay
[4] = tested on: A549; assay: Antiproliferative activity against human A549 cells assessed as inhibition of cell growth incubated for 48 hrs by CCK-8 assay
[5] = tested on: HepG2; assay: Antiproliferative activity against human HepG2 cells assessed as inhibition of cell growth incubated for 48 hrs by CCK-8 assay
[6] = tested on: PANC-1; assay: Antiproliferative activity against human PANC-1 cells assessed as inhibition of cell growth incubated for 48 hrs by CCK-8 assay

| Compound | IC50 ([1]; Homo sapiens, MCF7, 48 h) | IC50 ([2]; Homo sapiens, HCT-116, 48 h) | IC50 ([3]; Homo sapiens, HeLa, 48 h) | other results |
| --- | --- | --- | --- | --- |
| CCOC(=O)C[C@H]1CSC[C@]1(C(=O)OCC)n1cnc2c(N3CCCC3)ncnc21 (racemic) | > 50 µM | > 50 µM | > 50 µM |  |
| CCOC(=O)C[C@@H]1CSC[C@]1(C(=O)OCC)n1cnc2c(N3CCCC3)nc(Cl)nc21 (racemic) | > 50 µM | 34 µM | 38.3 µM |  |
| CCOC(=O)C[C@H]1CSC[C@]1(C(=O)OCC)n1cnc2cncnc21 (racemic) | > 50 µM | > 50 µM | > 50 µM |  |
| CCOC(=O)C[C@@H]1CSC[C@]1(C(=O)OCC)n1cnc2c(Cl)nc(Cl)nc21 (racemic) | 4.06 µM | 6.89 µM | 9.5 µM |  |
| CCOC(=O)C[C@H]1CSC[C@]1(C(=O)OCC)n1cnc2c(N3CCCCC3)nc(Cl)nc21 (racemic) | > 50 µM | 22.6 µM | 22.4 µM |  |
| CCOC(=O)C[C@H]1CSC[C@]1(C(=O)OCC)n1cnc2c(OCc3ccccc3)ncnc21 (racemic) | 12.7 µM | 13.2 µM | 13.7 µM |  |
| CCCSc1ncnc2c1ncn2[C@@]1(C(=O)OCC)CSC[C@H]1CC(=O)OCC (racemic) | 23.5 µM | 38.5 µM | > 50 µM |  |
| CCOC(=O)C[C@@H]1CSC[C@]1(C(=O)OCC)n1cnc2c(N(C)C)ncnc21 (racemic) | > 50 µM | > 50 µM | > 50 µM |  |
| CCOC(=O)C[C@H]1CSC[C@]1(C(=O)OCC)n1cnc2c(OCC)ncnc21 (racemic) | > 50 µM | > 50 µM | > 50 µM |  |
| CCOC(=O)C[C@H]1CSC[C@]1(C(=O)OCC)n1cnc2c(N(CC)CC)ncnc21 (racemic) | > 50 µM | > 50 µM | > 50 µM |  |
| CCOC(=O)C[C@@H]1CSC[C@]1(C(=O)OCC)n1cnc2c(Cl)nc(F)nc21 (racemic) | 27.9 µM | 15.9 µM | 14.5 µM |  |
| CCOC(=O)C[C@@H]1CSC[C@]1(C(=O)OCC)n1cnc2c(Cl)ncnc21 (racemic) | 43.5 µM | 19.4 µM | 12.5 µM |  |
| CCOC(=O)C[C@H]1C[S+]([O-])C[C@]1(C(=O)OCC)n1cnc2c(Cl)nc(Cl)nc21 (stereo not given in full) | 25.9 µM | 17.1 µM | 10.5 µM |  |
| CCOC(=O)C[C@H]1CSC[C@]1(C(=O)OCC)n1cnc2c(Cl)ncnc21 (racemic) | 12 µM | 15.5 µM | 6.81 µM |  |
| CCOC(=O)C[C@@H]1CSC[C@]1(C(=O)OCC)n1cnc2c(OCc3ccccc3)ncnc21 (racemic) | > 50 µM | > 50 µM | > 50 µM |  |
| CCOC(=O)C[C@H]1CSC[C@]1(C(=O)OCC)n1cnc2c(-c3ccccc3)ncnc21 (racemic) | > 50 µM | 17.3 µM | 26.2 µM |  |
| CCOC(=O)C[C@@H]1CSC[C@]1(C(=O)OCC)n1cnc2c(Br)ncnc21 (racemic) | > 50 µM | > 50 µM | 49.6 µM |  |
| CCOC(=O)C[C@@H]1CSC[C@]1(C(=O)OCC)n1cnc2cncnc21 (racemic) | > 50 µM | > 50 µM | > 50 µM |  |
| CCOC(=O)C[C@@H]1CSC[C@]1(C(=O)OCC)n1cnc2c(N(CC)CC)ncnc21 (racemic) | > 50 µM | 41.5 µM | > 50 µM |  |
| CCCSc1ncnc2c1ncn2[C@@]1(C(=O)OCC)CSC[C@@H]1CC(=O)OCC (racemic) | 30.9 µM | 25.9 µM | 37.2 µM |  |
| CCOC(=O)C[C@H]1CSC[C@]1(C(=O)OC(C)C)n1cnc2c(Cl)ncnc21 (racemic) | 13 µM | 14.7 µM | 9.99 µM |  |
| CCOC(=O)C[C@@H]1CSC[C@]1(C(=O)OC)n1cnc2c(Cl)ncnc21 (racemic) | > 50 µM | 31.8 µM | 12.5 µM |  |

| Compound | IC50 ([1]; Homo sapiens, MCF7, 48 h) | IC50 ([2]; Homo sapiens, HCT-116, 48 h) | IC50 ([3]; Homo sapiens, HeLa, 48 h) | other results |
| --- | --- | --- | --- | --- |
| CCOC(=O)C[C@@H]1CSC[C@]1(C(=O)OCC)n1cnc2c(OC)ncnc21 (racemic) | > 50 µM | > 50 µM | > 50 µM |  |
| CCOC(=O)C[C@H]1CSC[C@]1(C(=O)OCC)n1cnc2c(N(C)C)ncnc21 (racemic) | > 50 µM | > 50 µM | > 50 µM |  |
| CCOC(=O)C[C@@H]1CSC[C@]1(C(=O)OCC)n1cnc2c(N3CCCCC3)nc(Cl)nc21 (racemic) | 34 µM | > 50 µM | > 50 µM |  |
| CCOC(=O)C[C@@H]1CSC[C@]1(C(=O)OC(C)C)n1cnc2c(Cl)ncnc21 (racemic) | 44.8 µM | 38.2 µM | 13.6 µM |  |
| CCOC(=O)C[C@H]1CSC[C@]1(C(=O)OCC)n1cnc2c(Cl)nc(F)nc21 (racemic) | 22.9 µM | 11 µM | 8.8 µM |  |
| CCOC(=O)C[C@H]1CSC[C@]1(C(=O)OC)n1cnc2c(Cl)ncnc21 (racemic) | > 50 µM | 19.2 µM | 11.6 µM |  |
| CCOC(=O)C[C@H]1CSC[C@]1(C(=O)OCC)n1cnc2c(N3CCCC3)nc(Cl)nc21 (racemic) | 38.3 µM | 46.6 µM | > 50 µM |  |
| CCOC(=O)C[C@H]1CSC[C@]1(C(=O)OCC)n1cnc2c(N3CCCCC3)ncnc21 (racemic) | 23.8 µM | 22.8 µM | > 50 µM |  |
| CCOC(=O)C[C@@H]1CSC[C@]1(C(=O)OCC)n1cnc2c(N3CCCCC3)ncnc21 (racemic) | 42.2 µM | 32 µM | > 50 µM |  |
| CCOC(=O)C[C@@H]1CSC[C@]1(C(=O)OCC)n1cnc2c(-c3ccccc3)ncnc21 (racemic) | 19.4 µM | 25.1 µM | 42.9 µM |  |
| CCOC(=O)C[C@H]1CSC[C@]1(C(=O)OCC)n1cnc2c(OC)ncnc21 (racemic) | > 50 µM | > 50 µM | > 50 µM |  |
| CCOC(=O)C[C@H]1CSC[C@]1(C(=O)OCC)n1cnc2cnc(Cl)nc21 (racemic) | > 50 µM | > 50 µM | > 50 µM |  |
| CCOC(=O)C[C@H]1CS(=O)(=O)C[C@]1(C(=O)OCC)n1cnc2c(Cl)nc(Cl)nc21 | 16.2 µM | 11.2 µM | 7.67 µM |  |
| CCOC(=O)C[C@@H]1CSC[C@@]1(C(=O)OCC)n1cnc2c(Cl)nc(Cl)nc21 | 4.54 µM | 3.69 µM | 2.78 µM | IC50 ([4]; Homo sapiens, A549, 48 h): 41.4 µM; IC50 ([5]; Homo sapiens, HepG2, 48 h): 23.8 µM; IC50 ([6]; Homo sapiens, PANC-1, 48 h): 11.1 µM |
| CCOC(=O)C[C@@H]1CSC[C@]1(C(=O)OCC)n1cnc2c(N3CCCC3)ncnc21 (racemic) | > 50 µM | > 50 µM | > 50 µM |  |
| CCOC(=O)C[C@H]1CSC[C@]1(C(=O)OCC)n1cnc2c(Cl)nc(Cl)nc21 |  |  |  | IC50 ([4]; a549): > 50 µM; IC50 ([1]; mcf7): 5.82 µM; IC50 ([5]; hepg2): > 50 µM; IC50 ([2]; hct-116): 4.16 µM; IC50 ([3]; hela): 7.43 µM; IC50 ([6]; panc-1): 27.5 µM |
| CCOC(=O)C[C@@H]1CSC[C@]1(C(=O)OCC)n1cnc2cnc(Cl)nc21 (racemic) | > 50 µM | > 50 µM | > 50 µM |  |
| CCOC(=O)C[C@@H]1CSC[C@]1(C(=O)OCC)n1cnc2c(N3CCOCC3)ncnc21 (racemic) | > 50 µM | > 50 µM | > 50 µM |  |
| CCOC(=O)C[C@@H]1CSC[C@]1(C(=O)OCC)n1cnc2c(OCC)ncnc21 (racemic) | > 50 µM | 19.8 µM | > 50 µM |  |
| CCOC(=O)C[C@H]1CSC[C@]1(C(=O)OCC)n1cnc2c(Br)ncnc21 (racemic) | 19.4 µM | 30.1 µM | 14.4 µM |  |
| CCOC(=O)C[C@H]1CSC[C@]1(C(=O)OCC)n1cnc2c(N3CCOCC3)ncnc21 (racemic) | > 50 µM | > 50 µM | > 50 µM |  |
| O=c1[nH]cc(F)c(=O)[nH]1 [FLUOROURACIL] | 11.6 µM | 8.75 µM | 9.75 µM | IC50 ([5]; Homo sapiens, HepG2, 48 h): 12.9 µM; IC50 ([6]; Homo sapiens, PANC-1, 48 h): 44.1 µM |
